Test system: tumor tissues (breast)
Test: Immunohistopathology of tumor tissue after treatment
Assay type: in vivo
Conditions: 48 hours post treatment, FIG. 7
Description: After treatment with either cisplatin or the platinum peptide complex, tumor tissues (breast) were dissected and embedded in […]. The tumor tissue was fixed in […] and stained for cellular target expression.

Compound	histopathological changes
[NH2][Pt]([NH2])([Cl])[Cl] [CDDP, cisplatin]	marked necrosis and apoptosis
cis-1,2-DACH—Pt (II)-poly(glutamic/aspartic acid) [PDDP]	marked necrosis and apoptosis
